For the experiment, the target named is T1, PAK3 (Homo sapiens, UniProt O75914).
T1 construct: purchased Thermo Fisher Scientific (Life Technologies) SelectScreen
Briefly: SelectScreen Z'LYTE. Format: biochemical. The procedure, abridged: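 Percent values come from Thermo SelectScreen profiling of NU5455, combining activity and binding assays. CSF1R was run in Z'LYTE format at Km app ATP, and CAMK1 in Adapta format with ATP listed at 10.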

T1 sequence (O75914 whole entry): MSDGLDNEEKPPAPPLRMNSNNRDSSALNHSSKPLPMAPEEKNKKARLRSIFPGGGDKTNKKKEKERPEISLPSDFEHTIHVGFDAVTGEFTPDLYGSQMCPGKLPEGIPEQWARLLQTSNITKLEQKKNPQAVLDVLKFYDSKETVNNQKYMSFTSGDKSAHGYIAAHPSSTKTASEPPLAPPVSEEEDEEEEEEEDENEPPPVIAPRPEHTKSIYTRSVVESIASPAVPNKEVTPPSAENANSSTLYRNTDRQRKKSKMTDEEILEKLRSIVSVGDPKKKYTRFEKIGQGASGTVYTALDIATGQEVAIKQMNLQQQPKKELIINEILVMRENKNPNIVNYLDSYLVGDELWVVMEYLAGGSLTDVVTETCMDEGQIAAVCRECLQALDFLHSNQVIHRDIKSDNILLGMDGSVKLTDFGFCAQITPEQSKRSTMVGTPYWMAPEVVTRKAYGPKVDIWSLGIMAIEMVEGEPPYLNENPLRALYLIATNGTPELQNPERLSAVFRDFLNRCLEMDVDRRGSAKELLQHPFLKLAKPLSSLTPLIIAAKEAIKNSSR

`CN(C(=O)CN1CCOCC1)c1ccc2sc3c(-c4cccc5c(=O)cc(N6CC7CCC(C6)O7)oc45)cccc3c2c1` [NU5455]: the inhibition (in general, the relative decrease from the control value, in per cent) at 1 µM was -42.6%.

Source of the values: article PMC6934184, “Selective DNA-PKcs inhibition extends the therapeutic index of localized radiotherapy and chemotherapy” (The Journal of Clinical Investigation, 2019).
